Results on 30 compounds are retold here after patent publication US7674818B2, “Aryl, aryloxy, alkyloxy substituted 1H-indol-3-yl glyoxylic acid derivatives as inhibitors of plasminogen activator inhibitor-1 (PAI-1)” (Wyeth LLC, priority 2002, dated 2010).

Some results are limits rather than exact numbers.

Data set [1] has as its target T1, recombinant human plasminogen activator inhibitor-1 (Homo sapiens, UniProt P05121).
T1 construct: purchased Molecular Innovations, Royal Oak, Mich
Briefly: Primary screen for the PAI-1 inhibition (residual tPA activity, Spectrozyme-tPA chromogenic substrate). Type of data set: biochemical. As to conditions: pH 6.6 buffer, 140 nM PAI-1, 70 nM tPA; for Inhibition (%) (100 uM): test compound 100 uM (cell annotated "(100 uM)" instead of 25 uM); for inhibition at 25 µM / Inhibition @25 uM (%): test compound 25 uM. The method, then: Primary Screen for the PAI-1 Inhibition
Test compounds were dissolved in DMSO at a final concentration of 10 mM, then diluted 100× in physiologic buffer. The inhibitory assay was initiated by the addition of the test compound (1-100 μM final concentration, maximum DMSO concentration of 0.2%) in a pH 6.6 buffer containing 140 nM recombinant human plasminogen activator inhibitor-1 (Molecular Innovations, Royal Oak, Mich.). Following a 1 hour incubation at room temperature, 70 nM of recombinant human tissue plasminogen activator (tPA) was added, and the combination of the test compound, PAI-1 and tPA was incubated for an additional 30 minutes. Following the second incubation, Spectrozyme-tPA (American Diagnostica, Greenwich, Conn.), a chromogenic substrate for tPA, was added and absorbance read at 405 nm at 0 and 60 minutes. Relative PAI-1 inhibition was equal to the residual tPA activity in the presence of the test compound and PAI-1. Control treatments included the complete inhibition of tPA by PAI-1 at the molar ratio employed (2:1), and the absence of any effect of the test compound on tPA alone.

The target in the next data set is human PAI-1 (Homo sapiens, UniProt P05121). Description: Assay for determining IC50 of inhibition of PAI-1 (active PAI-1 bound to tPA-coated plate, 33B8 antibody detection). As to conditions: human PAI-1 50 ng/ml, pH 7.5, tPA-coated plate. It is filed as biochemical. The method, then:
Assay for Determining IC50 OF Inhibition of PAI-1
This assay was based upon the non-SDS dissociable interaction between tPA and active PAI-1. Assay plates were initially coated with human tPA (10 μg/ml). The test compounds were dissolved in DMSO at 10 mM, then diluted with physiologic buffer (pH 7.5) to a final concentration of 1-50 μM. The test compounds were incubated with human PAI-1 (50 ng/ml) for 15 minutes at room temperature. The tPA-coated plate was washed with a solution of 0.05% Tween 20 and 0.1% BSA, then the plate is blocked with a solution of 3% BSA. An aliquot of the test compound/PAI-1 solution was then added to the tPA-coated plate, incubated at room temperature for 1 hour, and washed. Active PAI-1 bound to the plate was assessed by adding an aliquot of a 1:1000 dilution of the 33B8 monoclonal antibody against human PAI-1, and incubating the plate at room temperature for 1 hour (Molecular Innovations, Royal Oak, Mich.). The plate was again washed, and a solution of goat anti-mouse IgG-alkaline phosphatase conjugate is added at a 1:50,000 dilution in goat serum. The plate was incubated 30 minutes at room temperature, washed, and a solution of alkaline phosphatase substrate was added. The plate was incubated 45 minutes at room temperature, and color development was determined at OD405 nm. The quantitation of active PAI-1 bound to tPA at varying concentrations of the test compound was used to determine the IC50. Results were analyzed using a logarithmic best-fit equation. The assay sensitivity was 5 ng/ml of human PAI-1 as determined from a standard curve ranging from 0-100 ng/ml.

Chain of human PAI-1 (P05121 24-402): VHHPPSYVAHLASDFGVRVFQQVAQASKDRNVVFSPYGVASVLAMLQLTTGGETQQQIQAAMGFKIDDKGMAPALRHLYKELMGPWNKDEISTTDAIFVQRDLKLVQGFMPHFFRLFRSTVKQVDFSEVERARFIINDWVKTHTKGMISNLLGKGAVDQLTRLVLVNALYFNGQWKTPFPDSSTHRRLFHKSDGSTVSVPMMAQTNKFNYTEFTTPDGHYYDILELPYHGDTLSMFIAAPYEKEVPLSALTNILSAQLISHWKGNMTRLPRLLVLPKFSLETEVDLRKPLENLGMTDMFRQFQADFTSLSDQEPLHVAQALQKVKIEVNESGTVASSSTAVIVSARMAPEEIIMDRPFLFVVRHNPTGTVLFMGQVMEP
T1 sequence (P05121 24-402): as above

For the compound “5-[3-(5-Chloro-3-carboxy(oxo)methyl-1H-indol-1-yl)phenoxymethyl]furan-2-carboxylic acid ethyl ester [Example 17]”, the “Inhibition (%) (100 uM)” value in data set [1] is recorded as 49%.

In the case of `N#Cc1ccc(COc2ccc(-n3cc(C(=O)C(=O)O)c4ccccc43)cc2)cc1` [Example 1, (1-{4-[(4-Cyanobenzyl)oxy]phenyl}-1H-indol-3-yl)(oxo)acetic acid], in data set [1], the inhibition (as a rule, how much of the control response was suppressed) at 25 µM came to 23%.

`COc1cccc(COc2ccc(-n3cc(C(=O)C(=O)O)c4ccccc43)cc2)c1` [Example 2, {1-[4-(3-Methoxybenzyloxy)phenyl]-1H-indol-3-yl}(oxo)acetic acid]: the inhibition at 25 µM in data set [1] was found to be 43%.

For `N#Cc1ccc(COc2ccc(-n3cc(C(=O)C(=O)O)c4cc(F)ccc43)cc2)cc1` [Example 4, {1-[4-(4-Cyanobenzyloxy)phenyl]-5-fluoro-1H-indol-3-yl}(oxo)acetic acid], in data set [1], the “Inhibition (%) (100 uM)” value worked out at 40%.

As to `COc1cc(COc2ccc(-n3cc(C(=O)C(=O)O)c4cc(F)ccc43)cc2)cc(OC)c1` [Example 5, {1-[4-(3,5-Dimethoxybenzyloxy)phenyl]-5-fluoro-1H-indol-3-yl}(oxo)acetic acid], the inhibition at 25 µM in data set [1] was 26%.

With `Cc1ccc2c(c1)c(C(=O)C(=O)O)cn2-c1ccc(OCc2cccc(Cl)c2)cc1` [Example 6, {1-[4-(3-Chlorobenzyloxy)phenyl]-5-methyl-1H-indol-3-yl}(oxo)acetic acid], in data set [1], the inhibition at 25 µM was 54%. For the same compound, the 50% inhibitory concentration (IC50) (in general, the concentration at which inhibition is half-maximal) against human PAI-1 is over 25 µM.

As to `Cc1ccc2c(c1)c(C(=O)C(=O)O)cn2-c1ccc(OCc2ccc(C(C)(C)C)cc2)cc1` [Example 7, {1-[4-(4-tert-Butylbenzyloxy)phenyl]-5-methyl-1H-indol-3-yl}(oxo)acetic acid], the inhibition at 25 µM in data set [1] turned out to be 62%.

For `Cc1ccc2c(c1)c(C(=O)C(=O)O)cn2-c1ccc(OCc2ccc(Cl)cc2Cl)cc1` [Example 8, {1-[4-(2,4-Dichlorobenzyloxy)phenyl]-5-methyl-1H-indol-3-yl}(oxo)acetic acid], the “Inhibition (%) (100 uM)” value in data set [1] came out at 34%.

For `N#Cc1ccc(COc2cccc(-n3cc(C(=O)C(=O)O)c4cc(Cl)ccc43)c2)cc1` [Example 9, {5-Chloro-1-[3-(4-cyanobenzyloxy)phenyl]-1H-indol-3-yl}(oxo)acetic acid], the inhibition at 25 µM in data set [1] was found to be 44%.

With `COc1cc(COc2cccc(-n3cc(C(=O)C(=O)O)c4cc(Cl)ccc43)c2)cc(OC)c1` [Example 10, {5-Chloro-1-[3-(3,5-dimethoxybenzyloxy)phenyl]-1H-indol-3-yl}(oxo)acetic acid], the inhibition at 25 µM in data set [1] stood at 1%.

Turning to `O=C(O)C(=O)c1cn(-c2ccc(OCc3c(F)c(F)c(C(F)(F)F)c(F)c3F)cc2)c2ccccc12` [Example 11, {1-[4-(2,3,5,6-tetrafluoro-4-trifluoromethylbenzyloxy)phenyl]1H-indol-3-yl}(oxo)acetic acid], the inhibition at 25 µM in data set [1] amounted to 66%.

As for `O=C(O)C(=O)c1cn(-c2ccc(OCc3ccc(-c4csnn4)cc3)cc2)c2ccccc12` [Example 12, {1-[4-(4-[1,2,3]thiadiazol-4-ylbenzyloxy)phenyl]-1H-indol-3-yl}(oxo)acetic acid], the “Inhibition (%) (100 uM)” value in data set [1] is 32%.

Regarding `O=C(O)C(=O)c1cn(-c2ccc(OCc3cc(Cl)nc(Cl)c3)cc2)c2ccccc12` [Example 13, {1-[4-(2,6-Dichloropyridin-4-ylmethoxy)phenyl]1H-indol-3-yl}(oxo)acetic acid], the inhibition at 25 µM in data set [1] stood at 39%.

Turning to `CCOC(=O)c1ccc(COc2ccc(-n3cc(C(=O)C(=O)O)c4cc(F)ccc43)cc2)o1` [Example 14, 5-[4-(5-Fluoro-3-carboxy(oxo)methyl-1H-indol-1-yl)phenoxymethyl]furan-2-carboxylic acid ethyl ester], the “Inhibition @25 uM (%)” value in data set [1] came to 43%.

`Cc1ccc2c(c1)c(C(=O)C(=O)O)cn2-c1ccc(OCc2cc(Cl)nc(Cl)c2)cc1` [Example 15, {1-[4-(2,6-dichloropyridin-4-ylmethoxy)phenyl]-5-methyl-1H-indol-3-yl}(oxo)acetic acid]: in data set [1], the inhibition at 25 µM is 5%.

`O=C(O)C(=O)c1cn(-c2cccc(OCc3c(F)c(F)c(C(F)(F)F)c(F)c3F)c2)c2ccc(Cl)cc12` [Example 16, {5-Chloro-1-[3-(2,3,5,6-tetrafluoro-4-trifluoromethylbenzyloxy)phenyl]1H-indol-3-yl}(oxo)acetic acid]: the inhibition at 25 µM in data set [1] is 75%. The IC50 against human PAI-1 was over 25 µM.

Consider `O=C(O)C(=O)c1cn(-c2cccc(OCc3ccc(-c4csnn4)cc3)c2)c2ccc(Cl)cc12` [Example 18, {5-Chloro-1-[3-(4-[1,2,3]thiadiazol-4-ylbenzyloxy)phenyl]-1H-indol-3-yl}(oxo)acetic acid], for which, in data set [1], the inhibition at 25 µM was 45%.

As for `O=C(O)C(=O)c1cn(-c2cccc(OCc3cc(Cl)nc(Cl)c3)c2)c2ccc(Cl)cc12` [Example 19, {5-Chloro-1-[3-(2,6-dichloropyridin-4-ylmethoxy)phenyl]-1H-indol-3-yl}(oxo)acetic acid], in data set [1], the inhibition at 25 µM was found to be 46%.

In the case of `O=C(O)C(=O)c1cn(-c2ccc(OC(F)(F)F)cc2)c2ccc(-c3ccc(OC(F)(F)F)cc3)cc12` [Example 20, [1,5-Bis-(4-trifluoromethoxy-phenyl)-1H-indol-3-yl]-oxo-acetic acid], the inhibition at 25 µM in data set [1] came to 56%. The compound also gave a 50% inhibitory concentration (IC50) at human PAI-1 of over 25 µM.

As for `O=C(O)C(=O)c1cn(Cc2ccc(F)cc2)c2ccc(OCCc3ccc(F)cc3)cc12` [Example 21], the melting point (usually the temperature of the solid-liquid transition) lay in the range of 171 to 173 °C. Moreover, the inhibition at 25 µM in data set [1] is 6%.

For the compound `O=C(O)C(=O)c1cn(Cc2ccccc2)c2ccc(OCc3ccccc3)cc12` [Example 22, (1-Benzyl-5-benzyloxy-1H-indol-3-yl)-oxo-acetic acid], in data set [1], the inhibition at 25 µM amounted to 13%.

With `O=C(O)C(=O)c1cn(Cc2ccccc2)c2ccc(Oc3ccc(C(F)(F)F)cc3Cl)cc12` [Example 23, [1-Benzyl-5-(2-chloro-4-trifluoromethyl-phenoxy)-1H-indol-3-yl](oxo)acetic acid], the melting point was 152 to 154 °C. Also, in data set [1], the inhibition at 25 µM worked out at 52%. The half-maximal inhibitory concentration (IC50) against human PAI-1 was determined as 12.3 µM.

On to `C=CCOc1ccc2c(c1)c(C(=O)C(=O)O)cn2CC1CCC1` [Example 24, (5-Allyloxy-1-cyclobutylmethyl-1H-indol-3-yl)-oxo-acetic acid], for which, in data set [1], the “Inhibition (%) (100 uM)” value is on record as 13%.

As for `C=CCOc1ccc2c(c1)c(C(=O)C(=O)O)cn2CCc1ccccc1` [Example 25, (5-Allyloxy-1-phenethyl-1H-indol-3-yl)-oxo-acetic acid], in data set [1], the “Inhibition (%) (100 uM)” value stood at 8%.

On to `C=CCOc1ccc2c(c1)c(C(=O)C(=O)O)cn2Cc1ccc2c(c1)OCO2` [Example 26, (5-Allyloxy-1-benzo[1,3]dioxol-5-ylmethyl-1H-indol-3-yl)-oxo-acetic acid], for which the “Inhibition (%) (100 uM)” value in data set [1] is reported as 8%.

Consider `C=CCOc1ccc2c(c1)c(C(=O)C(=O)O)cn2CCc1ccc(OC)cc1` [Example 27, {5-Allyloxy-1-[2-(4-methoxy-phenyl)-ethyl]-1H-indol-3-yl}-oxo-acetic acid], for which the “Inhibition (%) (100 uM)” value in data set [1] is on record as 16%.

For `C=CCOc1ccc2c(c1)c(C(=O)C(=O)O)cn2CCc1cccc2ccccc12` [Example 28, [5-Allyloxy-1-(2-naphthalen-1-yl-ethyl)-1H-indol-3-yl]-oxo-acetic acid], the inhibition at 25 µM in data set [1] is 12%.

On to `C=CCOc1ccc2c(c1)c(C(=O)C(=O)O)cn2CCc1cccc(C(F)(F)F)c1` [Example 29, {5-Allyloxy-1-[2-(3-trifluoromethylphenyl)-ethyl]-1H-indol-3-yl}-oxo-acetic acid], for which the “Inhibition (%) (100 uM)” value in data set [1] is 29%.

As for `C=CCOc1ccc2c(c1)c(C(=O)C(=O)O)cn2CCc1ccc(Br)cc1` [Example 30, {5-Allyloxy-1-[2-(4-bromophenyl)-ethyl]-1H-indol-3-yl}-oxo-acetic acid], the inhibition at 25 µM in data set [1] turned out to be 29%.

With “{1-[4-(3-Chlorobenzyloxy) phenyl]-1H-indol-3-yl}(oxo)acetic acid [Example 3]”, the “Inhibition @25 uM (%)” value in data set [1] is recorded as 78%. At human PAI-1, this compound displayed an IC50 of over 25 µM.
